Tests used:
[1] = target: T1, mouse DPP-4 ((29-760)-His) (Mus musculus, UniProt P28843); assay: Enzymatic activity assay of mouse DPP-4 (Gly-Pro-AMC fluorescence); assay type: biochemical; details: Mean ± SEM; substrate 10 μM, 30 minutes; read-out: mDPP-4 IC50
T1 construct: mouse DPP-4 ((29-760)-His); His (C); made in house
Method: (§1) Human DPP-4 ((39-766)-His) and mouse DPP-4 ((29-760)-His) are purified for use in the assay. The final concentration of hDPP-4 and mDPP-4 in the assay is 0.04 nM and 0.22 nM respectively.
(§2) Inhibition of the catalytic activity of human and mouse DPP-4 by the compound in the present invention is monitored by the formation of product fluorescence AMC (7-amido-4-methylcoumarin hydrobromide) from substrate Gly-Pro-AMC (Sigma, G2761) on an Envision plate reader. The reaction is typically conducted by incubating the enzyme, test compound, and substrate (10 μM) in a 75 μl assay buffer (0.01% BSA, 0.1 mM EDTA, […], 0.01% Triton™-X100, 0.1 M NaCl at pH 7.5) for 30 minutes. After the reaction is stopped by the addition of 25 μl ZnSO4 (10 mM), the formation of fluorescent product AMC is measured on an Envision plate reader with the excitation wavelength at 355 nm and emission wavelength at 460 nm. The IC50 value is calculated typically from a 10-point dose titration curve using the 4-parameter logistic equation.

[2] = target: T2, Human DPP-4 ((39-766)-His) (Homo sapiens, UniProt P27487); assay: Enzymatic activity assay of human DPP-4 (Gly-Pro-AMC fluorescence); assay type: biochemical; details: Mean ± SEM; substrate 10 μM, 30 minutes; read-out: hDPP-4 IC50
T2 construct: Human DPP-4 ((39-766)-His); His (C); made in house
Method: as §1, §2

obese DIO mice = assay: Therapeutic weight loss effect in high fat diet induced obese (DIO) mice; assay type: in vivo, mouse; details: day 14
Method: To determine the therapeutic weight loss effects and improvement of metabolic parameters, the compound from the invention is tested in the high fat diet (HFD) feeding induced obese mouse model (DIO mice). In this model, C57/Bl6J male mouse is fed with the 60% HFD (D12492i, Research Diets) for 16˜28 weeks to establish obesity with body weight reaching around 50 g. The mice will gradually increase the body weight to about 50 g and maintain that weight in this obese state. Test compound (via the vehicle of 0.5% HEC plus 0.25% Tween®-80 at 5 mL/kg) is administered orally to the obese DIO mice once or twice daily throughout the study duration. The dose-dependent weight loss of obese DIO mice for Example 1 of the oral treatment at 20 mg/kg and 60 mg/kg once daily is about 4% and 17% weight loss compared to the vehicle group at day 14, respectively. The data support that the compound of Example 1 is associated with desired weight loss and could offer a therapeutic weight loss effect.

human MetAP1 = target: T3, human MetAP1 (Homo sapiens, UniProt P53582); assay: Enzymatic activity assay of human MetAP1 (fluorescence, rhodamine-methionine); assay type: biochemical; details: substrate 50 μM, 60 minutes; read-out: hMetAP1 IC50
T3 construct: Full length MetAP2 (human and mouse) and MetAP1 (human) proteins are generated from Sf9 cells; made in house; host or cells: Sf9 cells
Method: (§3) Full length MetAP2 (human and mouse) and MetAP1 (human) proteins are generated from Sf9 cells using procedure similar to that described in Biochemistry 2003, 42, 5035-5042. MetAP2 and MetAP1 are purified in the presence of 5 mM MnCl2 and 2 mM CoCl2 respectively, and stored at −78° C. before use.
(§4) Inhibition of the catalytic activity of human and mouse MetAP2 by compounds in the present invention is measured by monitoring the formation of the product peptide (Gly-Lys-Val-Lys-Val-Gly-Val-Asn-Gly) from the substrate peptide (Met-Gly-Lys-Val-Lys-Val-Gly-Val-Asn-Gly) via LC/MS. The reaction is typically conducted by incubating the enzyme, test compound and substrate (150 μM) in a 100 μl assay buffer (50 mM HEPES, 100 mM NaCl, […], 0.17 mM Triton™ X-100 μl at pH 7.5) for 40 minutes. After the reaction is stopped by the addition of 200 μl CH3CN, the levels of product and remaining substrate are quantified with a mass spectrometer. The activity of human MetAP1 is monitored by the formation of the fluorescent product rhodamine-methionine from the substrate methionine-rhodamine-methionine on a spectrophotometer with the excitation light at 460 nm and emission light at 535 nm. The reaction is typically conducted by incubating the enzyme, test compound and substrate (50 μM) in a 100 μl assay buffer (50 mM HEPES, 100 mM NaCl, 0.1% BSA, 0.05% Tween®-20, 50 μM CoCl2) for 60 minutes. […]

mouse MetAP2 = target: T4, mouse MetAP2 (Mus musculus, UniProt O08663); assay: Enzymatic activity assay of mouse MetAP2 (LC/MS product peptide); assay type: biochemical; details: Mean ± SEM; substrate 150 μM, 40 minutes; read-out: mMetAP2 IC50
T4 construct: Full length MetAP2 (human and mouse) and MetAP1 (human) proteins are generated from Sf9 cells; made in house; host or cells: Sf9 cells
Method: as §3, §4

plasma DPP-4 = target: T5, plasma DPP-4 (Mus musculus, UniProt P28843); assay: DPP-4 pharmacodynamics assay in mouse (plasma DPP-4 enzyme activity); assay type: in vivo; details: C57B/L6 lean mice, oral gavage, vehicle group = 0%
T5 construct: Plasma, isolated from the blood samples, is used to determine the plasma DPP-4 enzyme activity; from tissue; host or cells: plasma of C57B/L6 mice dosed with compound
Method: To determine the in vivo DPP-4 inhibition by MetAP2 plus DPP-4 dual inhibitor compounds, C57B/L6 lean mice are administrated with the compound in fed states and then DPP-4 target engagement in plasma is measured. Animals are weighed and randomized by body weight. Each mouse is dosed via oral gavage with vehicle or testing compound formulated with vehicle for up to 3 times. The first dose is administrated at 9˜10 am on day 1. The second dose is administrated at 16:30˜17:30 on day 1. The third dose is administrated at 9˜10 am on day 2. The mice are fasted for 6 hours after the last dose before termination at ˜[…] on day 2. Blood samples are collected at 1 hour after the first dosing and upon termination. EDTA-K2 at final concentration of 5 mM is used as an anticoagulant. Plasma, isolated from the blood samples, is used to determine the plasma DPP-4 enzyme activity. Plasma DPP-4 enzyme activity in the present invention is monitored by the formation rate of fluorescence AMC from substrate Gly-Pro-AMC (Sigma, G2761) via Envision plate reader. […] Fluorescence signal is read immediately after the start of the reaction in kinetic model in Envision plate reader. […] The plasma DPP-4 activity is calculated from reaction velocity. […]

human MetAP2 = target: T6, human MetAP2 (Homo sapiens, UniProt P50579); assay: Enzymatic activity assay of human MetAP2 (LC/MS product peptide); assay type: biochemical; details: Mean ± SEM; substrate 150 μM, 40 minutes; read-out: hMetAP2 IC50
T6 construct: Full length MetAP2 (human and mouse) and MetAP1 (human) proteins are generated from Sf9 cells; made in house; host or cells: Sf9 cells
Method: as §3, §4

T5 sequence (P28843 37-760 limits assumed): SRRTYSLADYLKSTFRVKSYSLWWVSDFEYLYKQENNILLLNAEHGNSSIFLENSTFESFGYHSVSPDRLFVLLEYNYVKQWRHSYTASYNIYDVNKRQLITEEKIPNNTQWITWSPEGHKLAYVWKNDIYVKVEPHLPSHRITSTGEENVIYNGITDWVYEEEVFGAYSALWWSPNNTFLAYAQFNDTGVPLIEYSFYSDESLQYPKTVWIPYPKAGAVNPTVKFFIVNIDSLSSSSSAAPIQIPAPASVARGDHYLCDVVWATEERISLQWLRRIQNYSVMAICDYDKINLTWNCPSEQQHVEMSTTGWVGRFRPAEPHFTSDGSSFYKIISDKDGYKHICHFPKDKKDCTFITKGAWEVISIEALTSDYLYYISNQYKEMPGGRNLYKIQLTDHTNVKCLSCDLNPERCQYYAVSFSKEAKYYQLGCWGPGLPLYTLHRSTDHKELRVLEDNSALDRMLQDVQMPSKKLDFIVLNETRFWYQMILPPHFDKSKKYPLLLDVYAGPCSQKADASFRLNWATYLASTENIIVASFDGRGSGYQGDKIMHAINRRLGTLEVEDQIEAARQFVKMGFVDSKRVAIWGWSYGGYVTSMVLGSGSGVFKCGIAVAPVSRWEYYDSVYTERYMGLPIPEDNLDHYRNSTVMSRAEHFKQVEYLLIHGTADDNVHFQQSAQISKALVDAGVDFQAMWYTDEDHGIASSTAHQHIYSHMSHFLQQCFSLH
T1 sequence (P28843 29-760): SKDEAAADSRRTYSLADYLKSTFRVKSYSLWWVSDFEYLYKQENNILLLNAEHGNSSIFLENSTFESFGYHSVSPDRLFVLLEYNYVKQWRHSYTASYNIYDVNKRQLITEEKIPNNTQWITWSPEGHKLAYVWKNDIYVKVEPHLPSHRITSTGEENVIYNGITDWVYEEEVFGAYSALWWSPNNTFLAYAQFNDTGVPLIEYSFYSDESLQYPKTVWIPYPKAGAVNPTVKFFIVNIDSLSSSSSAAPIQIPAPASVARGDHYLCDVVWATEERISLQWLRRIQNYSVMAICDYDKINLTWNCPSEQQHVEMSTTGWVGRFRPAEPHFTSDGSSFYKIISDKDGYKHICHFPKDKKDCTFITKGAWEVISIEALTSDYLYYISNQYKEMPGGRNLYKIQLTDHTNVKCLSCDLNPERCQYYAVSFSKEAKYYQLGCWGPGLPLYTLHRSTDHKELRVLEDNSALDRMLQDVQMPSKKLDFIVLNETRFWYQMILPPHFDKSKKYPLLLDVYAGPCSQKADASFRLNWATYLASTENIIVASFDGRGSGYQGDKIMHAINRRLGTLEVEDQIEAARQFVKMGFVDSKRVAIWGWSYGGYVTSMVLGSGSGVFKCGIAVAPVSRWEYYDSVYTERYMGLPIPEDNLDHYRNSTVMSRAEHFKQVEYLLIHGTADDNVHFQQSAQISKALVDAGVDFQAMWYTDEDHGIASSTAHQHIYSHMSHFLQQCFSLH
T2 sequence (P27487 39-766): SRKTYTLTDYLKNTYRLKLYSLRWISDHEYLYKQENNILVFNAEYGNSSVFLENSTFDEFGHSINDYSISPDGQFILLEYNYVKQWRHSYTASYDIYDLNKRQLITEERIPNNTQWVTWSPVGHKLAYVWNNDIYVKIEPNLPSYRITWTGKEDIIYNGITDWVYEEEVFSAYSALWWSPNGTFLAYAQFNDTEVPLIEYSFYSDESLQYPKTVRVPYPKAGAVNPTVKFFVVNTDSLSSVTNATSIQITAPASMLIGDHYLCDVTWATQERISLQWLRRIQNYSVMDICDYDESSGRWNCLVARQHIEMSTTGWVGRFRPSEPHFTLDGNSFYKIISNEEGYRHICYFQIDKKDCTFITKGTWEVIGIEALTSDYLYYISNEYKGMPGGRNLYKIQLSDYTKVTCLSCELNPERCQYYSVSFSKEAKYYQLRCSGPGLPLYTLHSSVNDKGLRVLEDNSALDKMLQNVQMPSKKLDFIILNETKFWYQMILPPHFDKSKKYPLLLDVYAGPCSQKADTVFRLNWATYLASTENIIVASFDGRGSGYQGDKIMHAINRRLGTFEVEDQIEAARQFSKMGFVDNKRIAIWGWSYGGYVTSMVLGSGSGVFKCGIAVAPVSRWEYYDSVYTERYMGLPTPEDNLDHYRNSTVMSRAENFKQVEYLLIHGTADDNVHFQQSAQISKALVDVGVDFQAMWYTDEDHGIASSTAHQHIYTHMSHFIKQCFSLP
T6 sequence (P50579 whole entry): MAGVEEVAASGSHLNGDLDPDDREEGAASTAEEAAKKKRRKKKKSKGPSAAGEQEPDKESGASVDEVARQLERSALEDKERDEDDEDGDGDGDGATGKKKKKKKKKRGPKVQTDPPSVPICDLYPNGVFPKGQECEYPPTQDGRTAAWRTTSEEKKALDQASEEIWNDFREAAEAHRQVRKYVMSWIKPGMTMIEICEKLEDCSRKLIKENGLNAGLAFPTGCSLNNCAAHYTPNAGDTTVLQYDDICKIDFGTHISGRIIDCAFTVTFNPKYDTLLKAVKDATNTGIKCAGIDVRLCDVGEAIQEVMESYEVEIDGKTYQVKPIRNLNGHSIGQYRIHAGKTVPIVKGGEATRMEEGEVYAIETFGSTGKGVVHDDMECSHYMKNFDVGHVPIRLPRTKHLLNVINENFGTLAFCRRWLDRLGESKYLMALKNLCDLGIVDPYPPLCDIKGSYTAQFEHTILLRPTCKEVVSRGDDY
T4 sequence (O08663 whole entry): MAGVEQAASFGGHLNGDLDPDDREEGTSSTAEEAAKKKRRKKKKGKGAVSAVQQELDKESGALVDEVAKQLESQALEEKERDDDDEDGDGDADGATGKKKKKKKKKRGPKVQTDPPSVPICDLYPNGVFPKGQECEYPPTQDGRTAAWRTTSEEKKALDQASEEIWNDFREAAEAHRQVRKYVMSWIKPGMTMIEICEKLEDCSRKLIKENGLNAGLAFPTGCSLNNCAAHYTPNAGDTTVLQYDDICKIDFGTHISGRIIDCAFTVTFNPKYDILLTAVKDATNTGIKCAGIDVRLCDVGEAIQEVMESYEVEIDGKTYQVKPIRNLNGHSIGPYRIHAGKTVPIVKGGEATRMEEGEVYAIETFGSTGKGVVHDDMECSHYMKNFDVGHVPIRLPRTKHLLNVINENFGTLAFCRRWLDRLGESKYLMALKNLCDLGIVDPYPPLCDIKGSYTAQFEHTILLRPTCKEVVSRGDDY

IC50 [1]: 0.026 ± 0.011 µM
IC50 [2]: 0.006 ± 0.002 µM
IC50 (human MetAP1): > 30 µM
IC50 (mouse MetAP2): 0.036 ± 0.034 µM
plasma DPP-4 inhibition (plasma DPP-4; 1 hour after the first dosing): 86%
plasma DPP-4 inhibition (plasma DPP-4; upon termination (6 hours after the last dose, day 2)): 83%
IC50 (human MetAP2): 0.009 ± 0.003 µM
Structure (SMILES): N[C@H]1CN(c2ncc(Oc3c[nH]nc3C3=CCC(F)(F)CC3)cn2)C[C@@H]1c1cc(F)c(F)cc1F [Example 1, (3R,4S)-1-[5-[[3-(4,4-Difluorocyclohexen-1-yl)-1H-pyrazol-4-yl]oxy]pyrimidin-2-yl]-4-(2,4,5-trifluorophenyl)pyrrolidin-3-amine]
weight loss compared to the vehicle group (obese DIO mice; oral 20 mg/kg once daily): about 4%
weight loss compared to the vehicle group (obese DIO mice; oral 60 mg/kg once daily): ~17%

— patent US9822101B1, “Pyrazole compounds” (Eli Lilly and Company, priority 2015, dated 2017)
